Key:
NaV1.5 [1] = target: T1, NaV1.5 (Homo sapiens (Human), UniProt Q14524); assay: cell-based
NaV1.6 = NaV1.6 (Homo sapiens (Human), UniProt Q9UQD0); assay: Sodium Influx Assay (Flux), NaV1.6
NaV1.1 = NaV1.1 (Homo sapiens (Human), UniProt P35498); assay: Sodium Influx Assay (Flux), NaV1.1; assay type: cell-based; conditions: Trex HEK293 cells, ANG2 dye; arithmetic mean
Text: Sodium Influx Assay (In Vitro Assay)

NaV1.5 [2] = target: T1, NaV1.5; assay: Electrophysiological Assay (EP, patch voltage clamp), NaV1.5; assay type: cell-based; conditions: HEK-293 cells, whole-cell patch clamp, inactivated state; arithmetic mean
Protocol: Sodium currents were measured using the patch clamp technique in the whole-cell configuration using either a PatchXpress automated voltage clamp or manually using an Axopatch 200B (Axon Instruments) or Model 2400 (A-M systems) amplifier. […] In some studies, the external sodium was reduced by equimolar replacement with choline. […] All recordings were performed at ambient temperature in a bath chamber with a volume of 150 μL. Control sodium currents were measured in 0.5% DMSO. Controls and representative compounds of the invention were applied to the recording chamber through a 4-pinch or 8-pinch valve bath perfusion system manufactured by ALA Scientific Instruments.
Series resistance compensation was applied (60-80%). […] All statistics in this study are given as mean±SD.
The membrane potential was maintained at a voltage where inactivation of the channel is complete. The voltage is then stepped back to a very negative (Vhold=−150 mV) voltage for 20 ms and then a test pulse is applied to quantify the compound block. […] The percent decrease in sodium current following wash-on of compound was taken as the percent block of sodium channels.

T1 sequence (Q14524 other isoform, or with tags, fused parts or gaps): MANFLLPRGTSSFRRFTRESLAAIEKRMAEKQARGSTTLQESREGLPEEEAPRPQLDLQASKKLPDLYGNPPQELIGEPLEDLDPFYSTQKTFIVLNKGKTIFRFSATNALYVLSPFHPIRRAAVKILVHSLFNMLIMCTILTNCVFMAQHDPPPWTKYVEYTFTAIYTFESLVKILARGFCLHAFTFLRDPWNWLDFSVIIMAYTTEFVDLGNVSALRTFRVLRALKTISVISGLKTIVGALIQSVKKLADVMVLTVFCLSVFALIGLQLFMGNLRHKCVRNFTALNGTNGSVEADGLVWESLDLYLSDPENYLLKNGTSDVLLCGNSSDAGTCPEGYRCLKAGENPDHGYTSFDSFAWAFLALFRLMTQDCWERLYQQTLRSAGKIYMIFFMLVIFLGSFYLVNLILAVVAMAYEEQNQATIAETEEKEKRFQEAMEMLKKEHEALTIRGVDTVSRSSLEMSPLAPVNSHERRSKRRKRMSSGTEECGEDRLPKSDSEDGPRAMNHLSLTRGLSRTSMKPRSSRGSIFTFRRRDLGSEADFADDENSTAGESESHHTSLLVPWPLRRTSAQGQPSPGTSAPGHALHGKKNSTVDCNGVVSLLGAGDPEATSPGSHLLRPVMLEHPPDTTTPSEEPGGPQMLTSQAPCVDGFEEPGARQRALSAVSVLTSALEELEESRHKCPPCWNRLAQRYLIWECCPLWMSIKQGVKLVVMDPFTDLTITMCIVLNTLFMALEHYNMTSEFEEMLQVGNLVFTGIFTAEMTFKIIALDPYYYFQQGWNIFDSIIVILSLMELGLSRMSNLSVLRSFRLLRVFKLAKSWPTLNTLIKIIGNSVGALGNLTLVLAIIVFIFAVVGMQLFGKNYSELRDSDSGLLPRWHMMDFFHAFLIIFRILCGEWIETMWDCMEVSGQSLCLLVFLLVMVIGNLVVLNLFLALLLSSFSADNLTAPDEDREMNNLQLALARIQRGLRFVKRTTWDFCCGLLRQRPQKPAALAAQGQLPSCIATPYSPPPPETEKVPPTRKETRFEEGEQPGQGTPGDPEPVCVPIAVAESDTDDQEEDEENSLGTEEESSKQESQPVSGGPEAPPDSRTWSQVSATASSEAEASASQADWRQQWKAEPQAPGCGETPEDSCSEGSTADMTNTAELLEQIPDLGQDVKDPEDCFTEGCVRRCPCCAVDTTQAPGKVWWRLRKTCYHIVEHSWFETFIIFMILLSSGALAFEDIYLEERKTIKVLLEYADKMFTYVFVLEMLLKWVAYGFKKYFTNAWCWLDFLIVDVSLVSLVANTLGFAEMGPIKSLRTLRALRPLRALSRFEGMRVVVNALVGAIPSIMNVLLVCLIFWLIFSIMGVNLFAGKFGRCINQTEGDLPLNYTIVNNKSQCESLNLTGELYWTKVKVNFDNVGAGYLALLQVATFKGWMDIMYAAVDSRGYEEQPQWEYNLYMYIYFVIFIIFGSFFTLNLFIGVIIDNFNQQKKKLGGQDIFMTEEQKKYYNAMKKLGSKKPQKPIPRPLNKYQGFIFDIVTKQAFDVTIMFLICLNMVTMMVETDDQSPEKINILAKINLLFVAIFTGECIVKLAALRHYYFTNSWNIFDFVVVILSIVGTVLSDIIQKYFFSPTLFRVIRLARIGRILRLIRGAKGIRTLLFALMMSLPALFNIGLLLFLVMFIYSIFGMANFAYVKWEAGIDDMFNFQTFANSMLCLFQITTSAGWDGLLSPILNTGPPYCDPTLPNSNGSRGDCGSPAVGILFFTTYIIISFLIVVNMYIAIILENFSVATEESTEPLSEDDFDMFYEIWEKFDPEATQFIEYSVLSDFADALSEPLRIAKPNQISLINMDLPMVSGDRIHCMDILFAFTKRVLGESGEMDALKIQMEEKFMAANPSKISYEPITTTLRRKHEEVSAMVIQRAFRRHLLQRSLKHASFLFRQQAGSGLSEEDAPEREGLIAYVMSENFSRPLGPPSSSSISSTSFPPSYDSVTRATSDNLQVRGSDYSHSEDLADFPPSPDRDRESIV

SMILES | IC50 (NaV1.5 [1]) [µM] | IC50 (NaV1.6) [µM] | IC50 (NaV1.1) [µM] | IC50 (NaV1.5 [2]) [µM]
C[C@@H]1[C@H](N(C)c2cc(F)c(S(=O)(=O)Nc3cscn3)cc2Cl)CCN1Cc1ccccc1 (racemic) [Example 309, rac-4-(((2R,3R)-1-benzyl-2-methylpyrrolidin-3-yl)(methyl)amino)-5-chloro-2-fluoro-N-(thiazol-4-yl)benzenesulfonamide] | 7.35 | 6.86 | 8.44 | –
Cc1c(N(C)[C@H]2CCN(Cc3ccccc3)C2)cc(F)c(S(=O)(=O)Nc2cscn2)c1F [Example 103, (S)-4-((1-benzylpyrrolidin-3-yl)(methyl)amino)-2,6-difluoro-3-methyl-N-(thiazol-4-yl)benzenesulfonamide 2,2,2-trifluoroacetate] | – | – | – | > 30

Reference: US11299490B2, “Benzenesulfonamide compounds and their use as therapeutic agents” (Xenon Pharmaceuticals Inc., priority 2016, dated 2022)
